# Assays:
# Ca2+ flux in thymocytes = experiment: Calcium flux assay after TCR cross-linking; format: cell-based, mouse; details: wild type thymocytes; to levels of Pik3cg−/−;pik3cd−/− counterparts
# Method: Thymocytes or lymphocytes were preloaded with Fluo-4 AM (Molecular Probes, Eugene, OR) at 5 μg/mL for 30 minutes at 37° C., labeled with anti-CD4-APC conjugate (BD Biosciences) to permit gating on this T-cell subset during analysis, and finally washed and resuspended (2×10^6/mL) in DMEM and 10% FCS. After a baseline was established at quiescence, Ca^2+ flux was induced by the addition in tandem of anti-CD3e (hamster antimouse antibody; BD Biosciences) and the anti-hamster IgG polyclonal antibody (Jackson ImmunoResearch, West Grove, PA) for cross-linking. The resultant flux in Ca^2+ was measured for 5 minutes by flow cytometry, and total flux was established by the addition of ionomycin (0.5 μg/mL). Drug inhibition of Ca^2+ flux was measured after 30 minute pre-incubation with CAL-130 at room temperature of dye loaded cells. Percentage overall change in Ca^2+ flux is reported as (Ca^2+ fluxpeak−Ca^2+ fluxbaseline/Ca^2+fluxionomycin−Ca^2+fluxbaseline)×100.
# [1] = system: primary human T-ALL tumor cells; experiment: Primary T-ALL cell viability on MS5-DL1 stroma; format: cell-based; details: primary T-ALL devoid of PTEN; 72 hours
# Method: Cell proliferation of CCRF-CEM cells or shRNA transfected CCRF-CEM cells, in the presence or absence of appropriate drug, was followed by cell counting of samples in triplicate using a hemocytometer and trypan blue. For apoptosis determinations of untransfected or shRNA transfected CCRF-CEMs, cells were stained with APC-conjugated Annexin-V (BD Biosciences) in Annexin Binding Buffer (Miltyeni Biotec) and analyzed by flow cytometry. For primary T-ALL samples, cell viability was assessed using the BD Cell Viability kit (BD Biosciences) coupled with the use of fluorescent counting beads as previously described (Armstrong et al., 2009). For this, cells were plated with MS5-DL1 stroma cells, and after 72 hours following drug treatment cells were harvested and stained with an APC-conjugated anti-human CD45 followed by a staining with the above kit according to the manufacturer's instructions.
# p110γ = p110γ (Homo sapiens, UniProt P48736); experiment: ex-vivo PI3 kinase assay using recombinant PI3K; format: biochemical; details: ATP at Km
# Chain of p110γ (P48736 whole entry, species assumed, canonical isoform): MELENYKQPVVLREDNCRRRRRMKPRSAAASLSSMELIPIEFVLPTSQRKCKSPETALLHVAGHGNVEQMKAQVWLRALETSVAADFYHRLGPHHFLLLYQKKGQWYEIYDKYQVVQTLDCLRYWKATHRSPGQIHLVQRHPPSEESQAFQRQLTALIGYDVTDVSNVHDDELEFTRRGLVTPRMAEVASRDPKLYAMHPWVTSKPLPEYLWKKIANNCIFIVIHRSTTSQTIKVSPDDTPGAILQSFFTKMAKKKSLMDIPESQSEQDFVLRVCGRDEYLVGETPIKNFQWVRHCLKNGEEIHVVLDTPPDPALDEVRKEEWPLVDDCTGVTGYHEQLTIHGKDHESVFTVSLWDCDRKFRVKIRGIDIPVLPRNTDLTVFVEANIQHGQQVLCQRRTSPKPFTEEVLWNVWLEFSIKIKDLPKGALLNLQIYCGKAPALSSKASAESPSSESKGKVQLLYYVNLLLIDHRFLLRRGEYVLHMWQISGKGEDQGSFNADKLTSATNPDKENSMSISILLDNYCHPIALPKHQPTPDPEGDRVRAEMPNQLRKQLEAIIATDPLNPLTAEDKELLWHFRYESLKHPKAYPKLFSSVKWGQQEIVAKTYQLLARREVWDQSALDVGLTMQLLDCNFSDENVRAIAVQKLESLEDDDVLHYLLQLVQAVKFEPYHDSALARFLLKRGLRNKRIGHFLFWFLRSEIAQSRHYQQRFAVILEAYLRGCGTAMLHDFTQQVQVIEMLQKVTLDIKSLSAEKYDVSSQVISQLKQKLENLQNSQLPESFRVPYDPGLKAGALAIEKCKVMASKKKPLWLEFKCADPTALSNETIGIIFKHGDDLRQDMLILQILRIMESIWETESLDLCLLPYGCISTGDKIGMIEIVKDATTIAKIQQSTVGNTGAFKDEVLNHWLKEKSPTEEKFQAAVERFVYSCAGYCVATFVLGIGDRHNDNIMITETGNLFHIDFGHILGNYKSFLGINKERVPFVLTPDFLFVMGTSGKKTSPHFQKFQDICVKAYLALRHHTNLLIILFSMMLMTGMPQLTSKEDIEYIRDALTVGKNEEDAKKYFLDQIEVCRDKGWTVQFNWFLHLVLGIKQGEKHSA
# Method: (§1) CAL-130 is a derivative of IC87114 (Gilead Sciences, Foster City, CA), the synthesis of which has been previously described (Sadhu et al., 2003 and Sadhu et al., U.S. Pat. Nos. 6,518,277 and 6,667,300, which are incorporated by reference as if recited in full herein). […] values for CAL-130 inhibition of PI3K isoforms were determined in ex-vivo PI3 kinase assays using recombinant PI3K. A 10-point kinase inhibitory profile was determined with ATP at a concentration consistent with the Km for each enzyme (Puri et al., 2004).
# p110β = p110β (Homo sapiens, UniProt P42338); experiment: ex-vivo PI3 kinase assay using recombinant PI3K; format: biochemical; details: ATP at Km
# Chain of p110β (P42338 whole entry, species assumed): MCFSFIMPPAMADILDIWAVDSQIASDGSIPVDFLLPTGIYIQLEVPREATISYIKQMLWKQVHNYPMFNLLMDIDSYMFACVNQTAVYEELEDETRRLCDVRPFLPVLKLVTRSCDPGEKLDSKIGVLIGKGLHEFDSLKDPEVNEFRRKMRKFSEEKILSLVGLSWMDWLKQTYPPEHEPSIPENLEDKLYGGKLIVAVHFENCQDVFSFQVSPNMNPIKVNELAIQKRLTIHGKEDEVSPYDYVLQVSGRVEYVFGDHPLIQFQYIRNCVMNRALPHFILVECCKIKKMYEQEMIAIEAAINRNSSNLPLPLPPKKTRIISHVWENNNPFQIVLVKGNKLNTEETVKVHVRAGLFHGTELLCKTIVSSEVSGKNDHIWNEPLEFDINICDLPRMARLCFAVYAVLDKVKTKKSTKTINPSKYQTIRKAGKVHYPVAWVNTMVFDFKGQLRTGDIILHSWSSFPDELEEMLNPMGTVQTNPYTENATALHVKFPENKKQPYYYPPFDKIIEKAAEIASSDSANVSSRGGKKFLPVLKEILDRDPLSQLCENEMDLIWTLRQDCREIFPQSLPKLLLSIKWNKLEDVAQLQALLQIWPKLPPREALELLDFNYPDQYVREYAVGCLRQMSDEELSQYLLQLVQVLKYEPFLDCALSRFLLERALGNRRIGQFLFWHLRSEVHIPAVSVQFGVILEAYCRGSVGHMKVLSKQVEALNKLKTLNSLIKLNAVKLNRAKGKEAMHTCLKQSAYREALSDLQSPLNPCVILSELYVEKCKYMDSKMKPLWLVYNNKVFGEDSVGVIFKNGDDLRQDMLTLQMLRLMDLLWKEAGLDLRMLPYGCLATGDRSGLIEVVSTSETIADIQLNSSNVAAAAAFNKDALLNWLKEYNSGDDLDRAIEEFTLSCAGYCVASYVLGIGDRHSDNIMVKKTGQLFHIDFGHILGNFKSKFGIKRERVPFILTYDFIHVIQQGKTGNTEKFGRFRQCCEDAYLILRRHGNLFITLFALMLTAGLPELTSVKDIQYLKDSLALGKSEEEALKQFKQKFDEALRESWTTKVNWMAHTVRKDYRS
# Chain of p110β (P27986 whole entry partner, species assumed): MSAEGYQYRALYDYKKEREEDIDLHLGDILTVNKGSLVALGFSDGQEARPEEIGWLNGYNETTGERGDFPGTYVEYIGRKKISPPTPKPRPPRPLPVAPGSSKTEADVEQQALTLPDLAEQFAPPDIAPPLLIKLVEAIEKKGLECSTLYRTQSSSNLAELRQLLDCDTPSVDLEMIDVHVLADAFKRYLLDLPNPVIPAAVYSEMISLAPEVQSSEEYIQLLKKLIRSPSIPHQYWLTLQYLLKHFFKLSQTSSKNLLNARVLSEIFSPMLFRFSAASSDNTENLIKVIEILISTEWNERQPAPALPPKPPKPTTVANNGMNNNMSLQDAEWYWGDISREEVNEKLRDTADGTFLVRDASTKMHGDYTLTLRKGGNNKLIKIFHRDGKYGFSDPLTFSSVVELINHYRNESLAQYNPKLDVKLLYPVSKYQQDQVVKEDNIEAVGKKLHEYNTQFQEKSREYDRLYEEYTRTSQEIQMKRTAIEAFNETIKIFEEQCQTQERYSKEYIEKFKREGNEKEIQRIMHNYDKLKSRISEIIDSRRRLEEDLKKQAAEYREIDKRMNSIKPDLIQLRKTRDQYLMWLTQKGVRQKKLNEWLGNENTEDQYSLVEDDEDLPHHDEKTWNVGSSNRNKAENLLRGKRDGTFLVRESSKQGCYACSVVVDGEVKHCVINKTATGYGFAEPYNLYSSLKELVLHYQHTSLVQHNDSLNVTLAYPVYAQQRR
# Method: as §1
# Akt/PKB phosphorylation = experiment: TCR-induced Akt/PKB phosphorylation in thymocytes (Western blot); format: cell-based, mouse; details: thymocytes from 6 week old wild type animals
# Method: Cell lysates (from cell lines or thymocytes) were prepared on ice in M-PER Mammalian Protein Extraction reagent (Pierce) containing a cocktail of protease and phosphatase inhibitors (Swat et al., 2006). Equal amounts of total protein from lysates were subjected to SDS-PAGE, transferred to PVDF membrane (Immobilon-P, Millipore), and membranes probed by overnight incubation with appropriate primary antibodies. Bound antibodies were visualized with HRP-conjugated secondary antibodies and ECL chemistry (SuperPico West, Pierce).
# To assess the requirement for p110δ in TCR-induced phosphorylation of Akt/PBK, single-cell suspensions of thymocytes (1×10^8/mL) from PI3Kγ-deficient animals were incubated with the p110δ-specific inhibitor IC87114 (10 μM) or with vehicle control (DMSO) for 30 minutes before TCR cross-linking, as described for the Ca^2+ flux assay. Aliquots (100 μL) were collected at 0, 10, 30, and 60 minutes after TCR cross-linking, briefly centrifuged to pellet, and subsequently lysed with ice-cold M-Per (Pierce, Rockford, IL) (according to the manufacturer's recommendations) that contained a cocktail of phosphatase and protease inhibitors (Puri et al., 2005). Lysates were clarified by centrifugation (12,000 g for 15 minutes at 4° C.), and total and phosphorylated Akt/PBK were determined by Western blot analysis.
# AXL = target: T1, AXL (Homo sapiens, UniProt P30530); experiment: Ambit KinomeScan screening; format: binding; details: CAL-130 10 μM
# T1 construct: purchased Ambit (KinomeScan screening service)
# Method: (§2) CAL-130 (10 μM) was evaluated for its ability to prevent tagged kinases from interacting with immobilized “bait” ligand (Karaman et al., 2008). Results are reported as “% of control binding”, where lower numbers indicate stronger interactions with the tagged kinase. Values of >35% are considered “no hits”. PI3Kδ had the lowest percentage of control binding at 0.2% followed by PI3Kγ at 3.2% (See Table 1 below). These values indicate a high probability of a potent interaction. 353 kinases were assessed in the screen (Table 2).
# FLT3(ITD) = experiment: Ambit KinomeScan screening; format: binding; details: CAL-130 10 μM
# Method: as §2
# SgK085 = target: T2, SgK085 (Homo sapiens, UniProt Q86YV6); experiment: Ambit KinomeScan screening; format: binding; details: CAL-130 10 μM
# T2 construct: tag, kind not specified; purchased Ambit (KinomeScan screening service)
# T2 sequence (Q86YV6 whole entry): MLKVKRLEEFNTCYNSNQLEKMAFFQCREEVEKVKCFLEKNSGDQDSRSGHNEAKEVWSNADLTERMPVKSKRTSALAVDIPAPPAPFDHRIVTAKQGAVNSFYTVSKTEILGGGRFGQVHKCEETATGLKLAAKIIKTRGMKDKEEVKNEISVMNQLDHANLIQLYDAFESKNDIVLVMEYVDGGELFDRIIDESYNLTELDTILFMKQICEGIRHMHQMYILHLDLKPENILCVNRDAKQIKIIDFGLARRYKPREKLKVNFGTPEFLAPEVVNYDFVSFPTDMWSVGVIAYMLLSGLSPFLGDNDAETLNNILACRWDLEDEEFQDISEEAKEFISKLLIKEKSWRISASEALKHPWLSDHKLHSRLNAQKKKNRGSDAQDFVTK
# Method: as §2
# p38-δ = target: T3, p38-δ (Homo sapiens, UniProt O15264); experiment: Ambit KinomeScan screening; format: binding; details: CAL-130 10 μM
# T3 construct: purchased Ambit (KinomeScan screening service)
# T3 sequence (O15264 whole entry): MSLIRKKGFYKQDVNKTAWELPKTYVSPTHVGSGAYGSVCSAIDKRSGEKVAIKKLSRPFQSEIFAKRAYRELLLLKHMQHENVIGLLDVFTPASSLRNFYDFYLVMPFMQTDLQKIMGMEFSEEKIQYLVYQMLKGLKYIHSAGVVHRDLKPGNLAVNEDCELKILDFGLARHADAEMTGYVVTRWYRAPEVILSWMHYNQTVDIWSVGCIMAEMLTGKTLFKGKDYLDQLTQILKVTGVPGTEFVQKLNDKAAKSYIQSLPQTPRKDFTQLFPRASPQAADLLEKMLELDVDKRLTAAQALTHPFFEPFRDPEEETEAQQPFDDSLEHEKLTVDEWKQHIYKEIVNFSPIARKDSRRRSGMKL
# Method: as §2
# FGFR3(G697C) = target: T4, FGFR3(G697C) (Homo sapiens, UniProt P22607, G697C); experiment: Ambit KinomeScan screening; format: binding; details: CAL-130 10 μM
# T4 construct: unspecified tag; purchased Ambit (KinomeScan screening service)
# T4 sequence (P22607 23-806 G697C): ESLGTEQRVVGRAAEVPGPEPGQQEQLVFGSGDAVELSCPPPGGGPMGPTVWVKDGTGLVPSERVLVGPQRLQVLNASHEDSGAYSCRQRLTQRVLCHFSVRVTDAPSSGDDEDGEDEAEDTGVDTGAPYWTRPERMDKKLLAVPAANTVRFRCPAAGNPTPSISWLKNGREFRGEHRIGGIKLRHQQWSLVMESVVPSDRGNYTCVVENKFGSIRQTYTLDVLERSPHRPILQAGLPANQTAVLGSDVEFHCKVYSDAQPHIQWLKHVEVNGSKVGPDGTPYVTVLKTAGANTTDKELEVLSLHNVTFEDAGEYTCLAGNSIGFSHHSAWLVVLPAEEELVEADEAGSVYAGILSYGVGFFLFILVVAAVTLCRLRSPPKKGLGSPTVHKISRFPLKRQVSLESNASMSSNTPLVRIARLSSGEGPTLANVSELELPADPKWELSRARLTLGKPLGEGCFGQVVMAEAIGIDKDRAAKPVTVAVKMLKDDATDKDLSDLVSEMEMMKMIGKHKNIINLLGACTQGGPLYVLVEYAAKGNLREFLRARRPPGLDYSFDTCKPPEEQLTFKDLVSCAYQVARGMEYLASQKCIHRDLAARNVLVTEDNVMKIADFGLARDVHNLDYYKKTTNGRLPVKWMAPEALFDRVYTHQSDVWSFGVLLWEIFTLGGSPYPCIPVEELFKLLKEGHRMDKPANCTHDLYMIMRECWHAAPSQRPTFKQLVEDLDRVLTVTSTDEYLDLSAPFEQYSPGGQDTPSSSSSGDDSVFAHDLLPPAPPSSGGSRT
# Method: as §2
# FLT3(K663Q) = target: T5, FLT3(K663Q) (Homo sapiens, UniProt P36888, K663Q); experiment: Ambit KinomeScan screening; format: binding; details: CAL-130 10 μM
# T5 construct: unspecified tag; purchased Ambit (KinomeScan screening service)
# Method: as §2
# ADCK4 = target: T6, ADCK4 (Homo sapiens, UniProt Q96D53); experiment: Ambit KinomeScan screening; format: binding; details: CAL-130 10 μM
# T6 construct: purchased Ambit (KinomeScan screening)
# T6 sequence (Q96D53 whole entry): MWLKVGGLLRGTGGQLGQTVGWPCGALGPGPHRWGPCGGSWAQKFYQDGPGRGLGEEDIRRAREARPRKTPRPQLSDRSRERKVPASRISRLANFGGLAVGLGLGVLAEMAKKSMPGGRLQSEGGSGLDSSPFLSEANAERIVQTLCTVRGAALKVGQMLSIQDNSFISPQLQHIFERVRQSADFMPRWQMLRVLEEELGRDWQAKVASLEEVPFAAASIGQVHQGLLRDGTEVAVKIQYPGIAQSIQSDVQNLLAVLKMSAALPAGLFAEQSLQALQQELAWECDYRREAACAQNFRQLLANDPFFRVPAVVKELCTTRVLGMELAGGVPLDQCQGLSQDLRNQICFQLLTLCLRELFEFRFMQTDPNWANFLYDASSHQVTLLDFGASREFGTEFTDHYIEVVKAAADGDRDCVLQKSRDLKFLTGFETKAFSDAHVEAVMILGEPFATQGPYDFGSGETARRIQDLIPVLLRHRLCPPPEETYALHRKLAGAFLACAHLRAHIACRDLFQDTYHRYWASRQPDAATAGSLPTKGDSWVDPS
# Method: as §2
# JAK1(JH1domain) = target: T7, JAK1(JH1domain) (Homo sapiens, UniProt P23458); experiment: Ambit KinomeScan screening; format: binding; details: CAL-130 10 μM
# T7 construct: JAK1(JH1domain); purchased Ambit (KinomeScan screening)
# Method: as §2
# [2] = Plasma glucose and insulin levels; format: in vivo, mouse; details: single oral dose 10 mg kg−1
# Method: Plasma glucose and insulin levels were determined following a single oral dose of CAL-130 (10 mg kg^−1). Blood was collected into K2EDTA tubes by cardiac puncture at baseline and 0, 2, 4, and 8 hours post-dose, and plasma samples frozen at −80° C. until analysis. The insulin and glucose levels were determined by using an Ultra Sensitive Mouse Insulin ELISA Kit (Crystall Chem Inc.) or WaveSense Presto Blood Glucose Monitoring System (Agamatrix Inc., Boston, MA), respectively.
smiles,measurement,setting,value
Cc1ccccc1-n1c(C(C)Nc2nc(N)nc3nc[nH]c23)nc2cccc(C)c2c1=O (stereo not drawn) [CAL-130],calcium flux in response to TCR cross-linking,Ca2+ flux in thymocytes,attenuated
same,tumor cell viability,[1],reduction in tumor cell viability
same,IC50,p110γ,6.1 nM
same,IC50,p110β,56 nM
same,TCR induced Akt phosphorylation (Ser473),Akt/PKB phosphorylation,prevented
same,Percent of Control Binding,AXL,100%
same,Percent of Control Binding,FLT3(ITD),100%
same,Percent of Control Binding,SgK085,100%
same,Percent of Control Binding,p38-δ,100%
same,Percent of Control Binding,FGFR3(G697C),100%
same,Percent of Control Binding,FLT3(K663Q),100%
same,Percent of Control Binding,ADCK4,100%
same,Percent of Control Binding,JAK1(JH1domain),100%
same,plasma glucose levels,[2],did not affect
same,plasma insulin levels,[2],did not affect

# Source: patent publication US11969428B2, “Methods and pharmaceutical compositions for treating lymphoid malignancy” (priority 2011, dated 2024)
